According to patent US20240382482A1, “PLASMA KALLIKREIN INHIBITORS” (TAKEDA PHARMACEUTICAL COMPANY LIMITED, priority 2021, published 2024):

Columns and labels:
plasma kallikrein = target: T1, plasma kallikrein (Homo sapiens, UniProt P03952); assay: Neat human plasma assay (fluorogenic peptide), contact pathway-activated plasma; type: biochemical; settings: sodium citrate human plasma (78% final), 10 nM human FXIIa, 100 μM PFR-AMC, room temperature
T1 construct: added to sodium citrate collected human or rat plasma in a 96-well microplate; from tissue
T1 sequence (P03952 391-638 limits assumed): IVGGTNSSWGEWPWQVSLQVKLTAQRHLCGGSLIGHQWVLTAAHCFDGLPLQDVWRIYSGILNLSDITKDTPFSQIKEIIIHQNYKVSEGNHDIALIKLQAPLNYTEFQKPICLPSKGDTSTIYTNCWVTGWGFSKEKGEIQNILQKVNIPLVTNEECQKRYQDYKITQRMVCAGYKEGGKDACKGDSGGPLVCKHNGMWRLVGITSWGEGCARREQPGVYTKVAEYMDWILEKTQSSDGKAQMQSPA
T1 sequence (P03952 20-390 partner limits assumed): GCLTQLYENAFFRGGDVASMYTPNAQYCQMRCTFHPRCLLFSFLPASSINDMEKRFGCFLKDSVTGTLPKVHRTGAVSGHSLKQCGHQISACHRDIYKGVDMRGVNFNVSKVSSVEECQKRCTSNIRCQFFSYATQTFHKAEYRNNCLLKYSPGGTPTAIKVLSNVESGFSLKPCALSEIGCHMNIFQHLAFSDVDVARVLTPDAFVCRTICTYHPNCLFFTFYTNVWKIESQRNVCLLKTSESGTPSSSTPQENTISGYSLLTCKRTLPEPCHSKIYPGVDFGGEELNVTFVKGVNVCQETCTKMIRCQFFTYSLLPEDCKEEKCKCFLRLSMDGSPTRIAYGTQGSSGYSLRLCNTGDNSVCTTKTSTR
Protocol: To analyze inhibition of plasma kallikrein in an ex vivo setting, the potency of compounds was measure in contact pathway-activated plasma assays. In a fluorogenic peptide substrate assay, test compounds dissolved in DMSO were added to sodium citrate collected human or rat plasma in a 96-well microplate. Alternatively, citrated plasma was collected from rats administered the compounds orally or by IV. 10 nM of human FXIIa (Enzyme Research Laboratories) diluted in PKa buffer (20 mM Tris-HCl, pH 7.5, 150 mM NaCl, 1 mM EDTA, 0.1% PEG-8000, and 0.1% Triton X-100) was added to the plasma, followed by the 100 μM of the profluorescent, synthetic plasma kallikrein substrate PFR-AMC (also diluted in PKa buffer). Final plasma concentration in the reaction was 78%. Fluorescence was immediately monitored by excitation/emission wavelengths of 360 nm/480 nm respectively over a period of 5 minutes in a microplate reader. The resulting linear increase in fluorescence emission (reflecting PKa proteolysis of PFR-AMC substrate) was fit to extract a proteolytic rate (fluorescent units over time), and this rate was subsequently plotted against compound inhibitor concentration. Resulting plots were fit to a standard 4-parameter IC50/IC90 equation to determine min/max values, IC50/90, and slope. All experimental steps were performed at room temperature.

[1] = target: human activated kallikrein enzyme (Homo sapiens, UniProt P03952); assay: Inhibition of human activated kallikrein enzyme, fluorogenic peptide substrate assay (500 pM enzyme format); type: biochemical; settings: 500 pM activated kallikrein, 300 μM PFR-AMC substrate, 30 min preincubation, 10 min reaction, room temperature; read-out: Primary Dose Response Assay: Average EC50
Chain of human activated kallikrein enzyme (P03952 391-638 limits assumed): as the sequence (P03952 391-638 limits assumed) above
Chain of human activated kallikrein enzyme (P03952 20-390 partner limits assumed): as the sequence (P03952 20-390 partner limits assumed) above
Outline: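 500 pM enzyme preincubated 30 min at room temperature with inhibitor in 20 mM Tris pH 7.5, 150 mM NaCl, 1 mM EDTA, 0.1% PEG-400, 0.1% Triton X-100. Reaction started with 300 μM PFR-AMC and run 10 min at room temperature. AMC fluorescence read at ex 380/em 460 nm, and EC50 values reported as ranges.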

| SMILES | IC90 (plasma kallikrein) [nM] | EC50 [1] [nM] |
| --- | --- | --- |
| CN1C(=O)CN(c2cc(C3CC3)cn3cc(CNc4cc(NC(=O)Cc5ncn6ncc(Cl)cc56)ncn4)nc23)C1=O [Example 141, 2-(3-chloroimidazo[1,5-b]pyridazin-5-yl)-N-(6-(((6-cyclopropyl-8-(3-methyl-2,4-dioxoimidazolidin-1-yl)imidazo[1,2-a]pyridin-2-yl)methyl)amino)pyrimidin-4-yl)acetamide] | 500 to 5000 | ≤ 5 |
| N#Cc1cc(C2CC2)cn2cc(CNc3ccnc(NC(=O)Cc4ncn5ccc(Cl)cc45)c3)nc12 [Example 30, 2-(7-chloroimidazo[1,5-a]pyridin-1-yl)-N-(4-(((8-cyano-6-cyclopropylimidazo[1,2-a]pyridin-2-yl)methyl)amino)pyridin-2-yl)acetamide] | 500 to 5000 | ≤ 5 |

Results, then the molecule that gave them:

| IC90 (plasma kallikrein) [nM] | EC50 [1] [nM] | SMILES |
| --- | --- | --- |
| ≤ 500 | ≤ 5 | O=C(Cc1ncn2ccc(Cl)cc12)Nc1cc(NCc2cn3cc(C4CC4)cc(CO)c3n2)ccn1 [Example 52, 2-(7-chloroimidazo[1,5-a]pyridin-1-yl)-N-(4-(((6-cyclopropyl-8-(hydroxymethyl)imidazo[1,2-a]pyridin-2-yl)methyl)amino)pyridin-2-yl)acetamide] |
| 5000 to 25000 | ≤ 5 | O=C(Cc1n[nH]c2ccc(Cl)cc12)Nc1cc(NCc2cn3cc(C4CC4)ccc3n2)ccn1 [Example 26, 2-(5-chloro-1H-indazol-3-yl)-N-(4-(((6-cyclopropylimidazo[1,2-a]pyridin-2-yl)methyl)amino)pyridin-2-yl)acetamide] |
| ≤ 500 | ≤ 5 | O=C(Cc1ncn2ccc(Cl)cc12)Nc1cc(NCc2cn3cc(C4CC4)cc(C4(O)COC4)c3n2)ncn1 [Example 14, 2-(7-chloroimidazo[1,5-a]pyridin-1-yl)-N-(6-(((6-cyclopropyl-8-(3-hydroxyoxetan-3-yl)imidazo[1,2-a]pyridin-2-yl)methyl)amino)pyrimidin-4-yl)acetamide] |
